Measured values: patent publication US20240228465A1, “SUBSTITUTED PYRIDINE N-OXIDE DERIVATIVES USEFUL AS A FACTOR XIA INHIBITORS” (Janssen Pharmaceutica NV, priority 2021, published 2024)
Read-outs that look alike come from different tables or passages of the source.

Columns and labels:
Factor XIa = Factor XIa (Homo sapiens, UniProt P03951); assay: Factor XIa inhibition assay utilizing a fluorophore-quencher pair peptide substrate (FLINT); type: biochemical; conditions: 30 min preincubation
Text: Biological Example 1: Factor XIa Inhibition Assay Utilizing a Fluorophore-Quencher Pair Peptide Substrate
A fluorescence intensity (FLINT) based assay was used to monitor inhibition of Factor XIa. The peptide substrate, 5Fam-KLTRAETV-K5Tamra (purchased from New England Peptide) was chosen based on the […]. Conversion of zymogen […]. The custom peptide used in this assay was based on the Arg146 cleavage site of FXI. The peptide substrate was designed with a fluorophore-quencher pair, where the fluorescence is quenched until FXIa cleaves the 8-mer peptide after the Arg residue. The substrate KM was fit to a substrate inhibition model whereby kcat=0.86 s^−1, KM=12.4 μM, Ki=61.6 μM with an enzymatic efficiency, and kcat/KM=69523 M^−1s^−1.
The Factor XIa FLINT assay was used with the following 5Fam-KLTRAETV-K5Tamra assay buffer: 50 mM Tris, pH 7.5, 100 mM NaCl, 5 mM CaCl2, 0.1 mg/mL BSA, 0.03% CHAPS. Assay buffer was prepared by mixing all ingredients fresh. 5Fam-KLTRAETV-K5Tamra peptide substrate was first prepared at 10 mM in 100% DMSO, then diluted to 3 mM in 100% DMSO. Assay buffer was then added directly to the 3 mM stock of substrate to prepare the 30 μM 2× working concentration (15 μM final concentration). The 2× Factor XIa stock solution was prepared by diluting 6.562 μM stock in 1× assay buffer for a […].
Test compound(s) were run in an 11-point, 3-fold serial dilution with a final top compound concentration of 100 nM. Final DMSO in assay was 2%. FXIa was preincubated with compound for 30-minutes and then substrate was added to initiate the reaction. The assay was run with either end point (EP) reads at 30 min or kinetic (KIN) reads at 5 min intervals over 30 minutes. The time course was linear using 100 μM FXIa greater than 30 minutes. More specifically, the assay was run as follows: • 100 nL of 0.01 mM test compound was dispensed into black 384-well non-binding Greiner BioOne 784900 plate for 0.1 μM final concentration; • 5 μL of 1× assay buffer was dispensed to column 24 (low control) and 5 μL 2× Factor XIa solution was dispensed to columns 1-23 (column 23 high control); • the plate was centrifuged with a “cover” plate at 500 rpm for 1 min • the plate was pre-incubated for 30 minutes at room temperature with plate covered; • 5 μL of 2× 5Fam-KLTRAETV-K5Tamra peptide substrate was dispensed into the entire plate, columns 1-24; • the plate was centrifuged with a “cover” plate at 500 rpm for 1 min; • the plate was read monitoring fluorescence intensity on the BMG PHERAStar at room temperature, using fluorescence module 485 nm/520 nm.
(§1) Percent inhibition (IC50) curves were generated per compound tested, and data was analyzed using a 4-parameter logistic fit using GeneData Screener. The relative fluorescence unit (RFU) values were normalized to percent inhibition using the following equation:
[formula] • where LC—low control=mean signal of no Factor XIa or 100% inhibition of Factor XIa; HC—high control=mean signal of Factor XIa+5Fam-KLTRAETV-K5Tamra peptide substrate with DMSO only.
(§2) An 11-point dose response curve for the test compound(s) was generated using GENDATA to determine IC50 value based on the following equation:
(§3) [formula] • where Y is the % inhibition in the presence of X inhibitor concentration, Top=high control=mean signal of Factor XIa+5Fam-KLTRAETV-K5Tamra peptide substrate with DMSO only; Bottom=low control—mean signal of no Factor XIa or 100% inhibition of Factor XIa; HillSlope—Hill coefficient; and IC50=concentration of compound with 50% inhibition in relation to top/high control.
Representative compounds of formula (I) of the present invention were tested according to the procedure described in Biological Example 1 and Biological Example 2 above, with results as listed in Table 3, below. […]

human plasma kallikrein = human plasma kallikrein (Homo sapiens, UniProt P03952); assay: Kallikrein inhibition assay utilizing a quenched AMC peptide substrate (FLINT); type: biochemical
Protocol: Biological Example 2: Kallikrein Inhibition Assay Utilizing a Quenched AMC Peptide Substrate
A fluorescence intensity (FLINT) based assay was used to monitor inhibition of human plasma kallikrein. The peptide substrate, Z-Gly-Pro-Arg-AMC (Purchased from Bachem; Catalog #I-1150) was chosen based on its relatively low KM for kallikrein which enables running the assay at lower substrate concentrations to control background fluorescence. The kinetic parameters for this substrate were determined by fitting titration data to the Michaelis-Menten equation yielding a KM=40 μm, kcat=0.76 s^−1, and kcat/KM=18932 M^−1s^−1.
The Kallikrein FLINT assay was used with the following Z-Gly-Pro-Arg-AMC assay buffer: 50 mM Tris, pH 7.5, 100 mM NaCl, 5 mM CaCl2, 0.1 mg/mL BSA, 0.03% CHAPS. Assay buffer was prepared by mixing all ingredients fresh. 2× Z-Gly-Pro-Arg-AMC peptide substrate was prepared by diluting 10 mM stock into 1× assay buffer for a 100 μM working concentration (50 μM final concentration). The 2× kallikrein stock solution was prepared by diluting 14.76 μM stock in 1× assay buffer for a 4 nM working stock solution (2 nM final concentration).
Test compound(s) were run in an 11-point, 3-fold serial dilution with a final top compound concentration of 1 μM. Final DMSO in assay was 2%. Plasma kallikrein was pre-incubated for 30-minute with compound and then 50 μM substrate was added to initiate the reaction. The assay was run with either end point (EP) reads at 30 min or kinetic (KIN) reads at 5 min intervals over 30 minutes. The time course was linear using 2 nM kallikrein greater than 30 minutes. More specifically, the assay was run as follows: • 100 nL of 0.1 mM test compound was dispensed into black 384-well non-binding Greiner BioOne 784900 plate for 1 μM final concentration; • 5 μL of 1× assay buffer was dispensed to columns 24 (low control) and 5 μL 2× human kallikrein enzyme solution was dispensed to columns 1-23 (column 23 high control); • the plate was centrifuged with a “cover” plate at 500 rpm for 1 min • the plate was pre-incubated for 30 minutes at room temperature with plate covered; • 5 μL of 2× Z-Gly-Pro-Arg-AMC peptide substrate was dispensed into the entire plate, columns 1-24; • the plate was centrifuged with a “cover” plate at 500 rpm for 1 min; • the plate was read monitoring fluorescence intensity on the BMG PHERAStar at room temperature, using fluorescence module 340 nm/440 nm.
as §1
% inhibition=((HC−LC)−(compound−LC)/(HC−LC))*100 • where LC—low control=mean signal of human kallikrein enzyme or 100% inhibition of human kallikrein enzyme; HC—high control=mean signal of Factor XIa+Z-Gly-Pro-Arg-AMC peptide substrate with DMSO only.
as §2
as §3, with “Y=Bottom+(Top−Bottom)/(1+10^((log IC50−X)*HillSlope))” for “[formula]”, “human kallikrein enzyme+Z-Gly-Pro-Arg-AMC” for “Factor XIa+5Fam-KLTRAETV-K5Tamra”, “human kallikrein enzyme” for “Factor XIa”, “human kallikrein enzyme;” for “Factor XIa;”
Representative compounds of formula (I) of the present invention were tested according to the procedure described in Biological Example 1 and Biological Example 2 above, with results as listed in Table 3, below. Results listed in the (ER) column were measured using endpoint reads where a single fluorescence reading was measured for each well at a 30 min timepoint. […]

[1] = kinetic reads at 5 min intervals over 30 min, read-out: FXIa (KIN) IC50
[2] = kinetic reads at 5 min intervals over 30 min, 30 min preincubation, read-out: Kallikrein (KIN) IC50
[3] = end point read at 30 min, read-out: FXIa (EP) IC50
[4] = end point read at 30 min, 30 min preincubation, read-out: Kallikrein (EP) IC50
[5] = kinetic reads, unit μM, read-out: Kallikrein (KIN) IC50

Sequence of human plasma kallikrein (P03952 391-638 limits assumed): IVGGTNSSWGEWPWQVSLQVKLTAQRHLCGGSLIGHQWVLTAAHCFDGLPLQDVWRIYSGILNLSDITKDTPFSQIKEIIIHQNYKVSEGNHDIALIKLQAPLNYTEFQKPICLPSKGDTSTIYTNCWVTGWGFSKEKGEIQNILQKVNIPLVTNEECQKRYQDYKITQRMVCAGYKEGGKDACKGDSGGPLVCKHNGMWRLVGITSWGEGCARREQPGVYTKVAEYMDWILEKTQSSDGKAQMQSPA
Sequence of human plasma kallikrein (P03952 20-390 partner limits assumed): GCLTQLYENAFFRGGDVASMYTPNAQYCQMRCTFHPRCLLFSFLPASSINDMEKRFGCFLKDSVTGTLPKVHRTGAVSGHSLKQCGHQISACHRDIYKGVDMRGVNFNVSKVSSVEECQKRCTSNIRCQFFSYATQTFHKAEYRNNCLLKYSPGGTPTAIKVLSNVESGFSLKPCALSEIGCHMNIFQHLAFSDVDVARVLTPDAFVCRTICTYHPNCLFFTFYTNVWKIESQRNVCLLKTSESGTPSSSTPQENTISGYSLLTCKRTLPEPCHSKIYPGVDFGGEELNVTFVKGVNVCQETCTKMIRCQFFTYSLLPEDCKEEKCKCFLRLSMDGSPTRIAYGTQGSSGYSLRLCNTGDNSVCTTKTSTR
Sequence of Factor XIa (P03951 388-625 limits assumed): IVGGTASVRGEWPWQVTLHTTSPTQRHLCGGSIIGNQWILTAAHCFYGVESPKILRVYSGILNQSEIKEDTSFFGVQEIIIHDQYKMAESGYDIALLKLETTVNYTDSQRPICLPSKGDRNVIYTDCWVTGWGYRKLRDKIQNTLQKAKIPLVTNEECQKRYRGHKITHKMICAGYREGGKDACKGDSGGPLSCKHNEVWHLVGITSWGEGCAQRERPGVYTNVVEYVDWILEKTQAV
Sequence of Factor XIa (P03951 19-387 partner limits assumed): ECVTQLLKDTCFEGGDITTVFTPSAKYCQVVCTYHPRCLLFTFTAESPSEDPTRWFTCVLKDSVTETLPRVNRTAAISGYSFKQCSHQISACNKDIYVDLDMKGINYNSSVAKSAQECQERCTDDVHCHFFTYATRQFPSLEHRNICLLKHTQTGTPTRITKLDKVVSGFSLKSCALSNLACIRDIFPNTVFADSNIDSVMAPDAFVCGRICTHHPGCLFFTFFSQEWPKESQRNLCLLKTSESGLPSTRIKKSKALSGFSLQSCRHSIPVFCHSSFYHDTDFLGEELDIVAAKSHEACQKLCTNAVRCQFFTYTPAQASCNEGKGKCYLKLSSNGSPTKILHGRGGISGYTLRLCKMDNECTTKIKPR

| SMILES | IC50 (Factor XIa; [1]) | IC50 (human plasma kallikrein; [2]) | IC50 (Factor XIa; [3]) | IC50 (human plasma kallikrein; [4]) | IC50 (human plasma kallikrein; [5]) |
| --- | --- | --- | --- | --- | --- |
| COC(=O)Nc1ccc(-c2cn(C(CC3CC3)c3ccc(-c4c(-n5cnnn5)ccc(Cl)c4F)c[n+]3[O-])nn2)cc1 (single isomer, unassigned) [T3, (R*)-5-(3-Chloro-2-fluoro-6-(1H-tetrazol-1-yl)phenyl)-2-(2-cyclopropyl-1-(4-(4-((methoxycarbonyl)amino)phenyl)-1H-1,2,3-triazol-1-yl)ethyl)pyridine 1-oxide] | 31.8 nM | 0.269 µM | – | – | – |
| [O-][n+]1cc(-c2c(-n3cc(C(F)(F)F)nn3)ccc(Cl)c2F)ccc1[C@@H](CCOC(F)F)n1cnc(-c2ncnn2C(F)F)c1 [M7, (R)-5-(3-Chloro-2-fluoro-6-(4-(trifluoromethyl)-1H-1,2,3-triazol-1-yl)phenyl)-2-(3-(difluoromethoxy)-1-(4-(1-(difluoromethyl)-1H-1,2,4-triazol-5-yl)-1H-imidazol-1-yl)propyl)pyridine 1-oxide] | ~33 nM | 0.338 µM | – | – | – |
| O=C(O)c1ccc(-c2cn(C(CC3CC3)c3ccc(-c4cc(Cl)ccc4-n4cnnn4)c[n+]3[O-])cn2)cc1 (stereo not drawn) [M1, 2-(1-(4-(4-Carboxyphenyl)-1H-imidazol-1-yl)-2-cyclopropylethyl)-5-(5-chloro-2-(1H-tetrazol-1-yl)phenyl)pyridine 1-oxide] | – | – | 7.1 nM | 0.306 µM | – |
| Cn1nncc1-c1cn([C@@H](CCOC(F)F)c2ccc(-c3c(-n4cc(Cl)nn4)ccc(Cl)c3F)c[n+]2[O-])cn1 [M11, (S)-5-(3-Chloro-6-(4-chloro-1H-1,2,3-triazol-1-yl)-2-fluorophenyl)-2-(3-(difluoromethoxy)-1-(4-(1-methyl-1H-1,2,3-triazol-5-yl)-1H-imidazol-1-yl)propyl)pyridine 1-oxide] | > 200 nM | – | – | – | > 20 µM |
| Cn1nncc1-c1cn([C@H](CCOC(F)F)c2ccc(-c3c(-n4cc(Cl)nn4)ccc(Cl)c3F)c[n+]2[O-])cn1 [M12, (R)-5-(3-Chloro-6-(4-chloro-1H-1,2,3-triazol-1-yl)-2-fluorophenyl)-2-(3-(difluoromethoxy)-1-(4-(1-methyl-1H-1,2,3-triazol-5-yl)-1H-imidazol-1-yl)propyl)pyridine 1-oxide] | 0.3 nM | 0.0159 µM | – | – | – |
| O=C(N[C@H]1C[C@H](O)C1)c1ccc(-c2cn(C(CC3CC3)c3ccc(-c4cc(Cl)ccc4-n4cnnn4)c[n+]3[O-])cn2)cc1 (mixture of isomers) [M2, 5-(5-Chloro-2-(1H-tetrazol-1-yl)phenyl)-2-(2-cyclopropyl-1-(4-(4-(((1R,3R)-3-hydroxycyclobutyl)carbamoyl)phenyl)-1H-imidazol-1-yl)ethyl)pyridine 1-oxide] | – | – | 100 nM | 1.36 µM | – |
| [2H]C([2H])([2H])n1nccc1-c1cn(C(CCOC(F)F)c2ccc(-c3c(-n4cc(C(F)(F)F)nn4)ccc(Cl)c3F)c[n+]2[O-])cn1 (single isomer, unassigned) [M16, (S*)-5-(3-Chloro-2-fluoro-6-(4-(trifluoromethyl)-1H-1,2,3-triazol-1-yl)phenyl)-2-(3-(difluoromethoxy)-1-(4-(1-(methyl-d3)-1H-pyrazol-5-yl)-1H-imidazol-1-yl)propyl)pyridine 1-oxide] | 0.5 nM | 0.0317 µM | – | – | – |
| [O-][n+]1cc(-c2c(-n3cnnn3)ccc(Cl)c2F)ccc1[C@@H](CCOC(F)F)n1cnc(-c2cnnn2C(F)F)c1 [M14, (R)-5-(3-Chloro-2-fluoro-6-(1H-tetrazol-1-yl)phenyl)-2-(3-(difluoromethoxy)-1-(4-(1-(difluoromethyl)-1H-1,2,3-triazol-5-yl)-1H-imidazol-1-yl)propyl)pyridine 1-oxide] | 0.5 nM | 0.029 µM | – | – | – |
| Cn1nncc1-c1cn([C@@H](CCOC(F)F)c2ccc(-c3c(-n4cc(C(F)(F)F)nn4)ccc(Cl)c3F)c[n+]2[O-])cn1 [M8, (S)-5-(3-Chloro-2-fluoro-6-(4-(trifluoromethyl)-1H-1,2,3-triazol-1-yl)phenyl)-2-(3-(difluoromethoxy)-1-(4-(1-methyl-1H-1,2,3-triazol-5-yl)-1H-imidazol-1-yl)propyl)pyridine 1-oxide] | > 200 nM | – | – | – | > 20 µM |
